Some results are limits rather than exact numbers.

Experimental findings from patent US20230257393A1, “MACROMOLECULE-SUPPORTED THIENOAZEPINE COMPOUNDS, AND USES THEREOF” (BOLT BIOTHERAPEUTICS, INC., priority 2020, published 2023) are described below.

The first assay concerns the target T1, human TLR8 (Homo sapiens, UniProt Q9NR97).
T1 construct: host or cells: HEK293 reporter cells
T1 sequence (Q9NR97 27-1041): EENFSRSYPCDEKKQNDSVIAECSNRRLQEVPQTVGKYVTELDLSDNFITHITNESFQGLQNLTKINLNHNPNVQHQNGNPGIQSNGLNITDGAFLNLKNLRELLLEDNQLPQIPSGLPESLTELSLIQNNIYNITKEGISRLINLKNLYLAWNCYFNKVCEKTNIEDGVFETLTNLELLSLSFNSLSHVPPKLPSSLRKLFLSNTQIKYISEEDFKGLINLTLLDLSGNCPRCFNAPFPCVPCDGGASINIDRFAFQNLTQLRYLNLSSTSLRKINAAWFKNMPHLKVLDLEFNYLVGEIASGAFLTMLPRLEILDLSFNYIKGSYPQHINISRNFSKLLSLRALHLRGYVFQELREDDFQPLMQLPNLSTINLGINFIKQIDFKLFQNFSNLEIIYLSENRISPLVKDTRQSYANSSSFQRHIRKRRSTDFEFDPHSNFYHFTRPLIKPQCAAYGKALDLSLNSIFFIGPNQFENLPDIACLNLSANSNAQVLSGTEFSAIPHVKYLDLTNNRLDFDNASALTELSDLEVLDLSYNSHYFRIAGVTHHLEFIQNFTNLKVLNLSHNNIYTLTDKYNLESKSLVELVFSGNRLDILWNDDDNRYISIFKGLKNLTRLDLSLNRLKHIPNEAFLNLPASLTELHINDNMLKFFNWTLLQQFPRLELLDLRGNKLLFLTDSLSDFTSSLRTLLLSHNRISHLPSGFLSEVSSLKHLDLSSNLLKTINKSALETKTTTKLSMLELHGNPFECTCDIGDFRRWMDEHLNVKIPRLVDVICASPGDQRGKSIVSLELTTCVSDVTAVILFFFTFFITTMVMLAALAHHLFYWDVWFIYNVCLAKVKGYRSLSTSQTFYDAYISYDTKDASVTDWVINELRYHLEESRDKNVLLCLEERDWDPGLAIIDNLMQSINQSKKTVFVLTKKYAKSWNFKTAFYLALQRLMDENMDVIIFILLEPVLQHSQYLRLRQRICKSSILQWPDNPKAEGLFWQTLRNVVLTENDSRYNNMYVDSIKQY
Nature of the assay: HEK Reporter Assay, HEK293 NFKB reporter cells expressing human TLR8. It counts as cell-based. As to conditions: Table 1a, read-out: HEK293 hTLR8 EC50. Here is the method:
(§1) Each compound was synthesized, purified, and characterized by mass spectrometry and shown to have the mass indicated. Additional experimental procedures are found in the Examples. Activity against HEK293 NFKB reporter cells expressing human TLR7 or human TLR8 was measured according to Example 202.
(§2) HEK293 reporter cells expressing human TLR7 or human TLR8 were purchased from Invivogen and vendor protocols were followed for cellular propagation and experimentation. Briefly, cells were grown to 80-85% confluence at 5% CO2 in DMEM supplemented with 10% FBS, Zeocin, and Blasticidin. Cells were then seeded in 96-well flat plates at 4×10^4 cells/well with substrate containing HEK detection medium and immunostimulatory molecules. Activity was measured using a plate reader at 620-655 nm wavelength.
For the molecule `CCCN(CC#CCNC(=O)OC(C)(C)C)C(=O)C1=Cc2sc(Br)cc2N=C(N)C1` [TAZ-10, tert-butyl N-[4-[(5-amino-2-bromo-6H-thieno[3,2-b]azepine-7-carbonyl)-propyl-amino]but-2-ynyl]carbamate], the EC50 was above 9 µM.

The same assay, now with this note: Table 1c, read-out: HEK293 hTLR8 EC50.
Consider `CCCN(CCCNC(=O)OC1CCC1)C(=O)C1=Cc2sc(CCC3CNC3)cc2N=C(N)C1` [TAZ-197], for which the EC50 is at least 9 µM.
With `CCCN(CCCNC(=O)OC1CCC1)C(=O)C1=Cc2sc(CN3CCNCC3)cc2N=C(N)C1` [TAZ-169], the EC50 was at least 9 µM.
Still for that read-out and setting: the same measure for `CCCN(CC1CC1)C(=O)C1=Cc2sc(CCCCCNC(=O)OC(C)(C)C)cc2N=C(N)C1` [TAZ-125]: at least 9 µM; for `CCCN(CCCNC(=O)OC1CCC1)C(=O)C1=Cc2sc(CN3CCN(c4ccc(C(=O)OC)cc4)CC3)cc2N=C(N)C1` [TAZ-180]: at least 9 µM.
As to `CCCN(OCC)C(=O)C1=Cc2sc(C#CC3CCN(C(=O)OC(C)(C)C)CC3)cc2N=C(N)C1` [TAZ-173], the EC50 was at least 9 µM.
Take `CCCN(C(=O)C1=Cc2sc(CCCCCNC(=O)OC(C)(C)C)cc2N=C(N)C1)C1CC1` [TAZ-123]: the EC50 was at least 9 µM.
Still for that read-out and setting: the same measure for `CCCN(C[C@H]1CC[C@@H](CNC(=O)OC(C)(C)C)CC1)C(=O)C1=Cc2sccc2N=C(N)C1` [TAZ-119]: at least 9 µM.
The same measure, in the same setting: next, `CCCN(CCCNC(=O)OC1CCC1)C(=O)C1=Cc2sc(CC3CNC3)cc2N=C(N)C1` [TAZ-181]: at least 9 µM; `CCCN(Cc1ccc(CN(C)C)cc1C(F)(F)F)C(=O)C1=Cc2sc(CCCCCNC(=O)OC(C)(C)C)cc2N=C(N)C1` [TAZ-143]: at least 9 µM; `CCCN(CCCNC(=O)C(C)(C)C)C(=O)C1=Cc2sc(CCCCCN)cc2N=C(N)C1` [TAZ-142]: at least 9 µM.
On the same count and under the same terms, next, `CCCN(CCCNC(=O)OC1CCC1)C(=O)C1=Cc2sc(CC3CCNCC3)cc2N=C(N)C1` [TAZ-185, cyclobutyl N-[3-[[5-amino-2-(4-piperidylmethyl)-6H-thieno[3,2-b]azepine-7-carbonyl]-propyl-amino]propyl]carbamate]: at least 9 µM; `CCCN(CCCNC(=O)OC1CCC1)C(=O)C1=Cc2sc(CNC(=O)Cc3ccccc3)cc2N=C(N)C1` [TAZ-204]: 2.25 µM.

Another assay concerns the target T2, human TLR7 (Homo sapiens, UniProt Q9NYK1).
T2 construct: host or cells: HEK293 reporter cells
T2 sequence (Q9NYK1 27-1049): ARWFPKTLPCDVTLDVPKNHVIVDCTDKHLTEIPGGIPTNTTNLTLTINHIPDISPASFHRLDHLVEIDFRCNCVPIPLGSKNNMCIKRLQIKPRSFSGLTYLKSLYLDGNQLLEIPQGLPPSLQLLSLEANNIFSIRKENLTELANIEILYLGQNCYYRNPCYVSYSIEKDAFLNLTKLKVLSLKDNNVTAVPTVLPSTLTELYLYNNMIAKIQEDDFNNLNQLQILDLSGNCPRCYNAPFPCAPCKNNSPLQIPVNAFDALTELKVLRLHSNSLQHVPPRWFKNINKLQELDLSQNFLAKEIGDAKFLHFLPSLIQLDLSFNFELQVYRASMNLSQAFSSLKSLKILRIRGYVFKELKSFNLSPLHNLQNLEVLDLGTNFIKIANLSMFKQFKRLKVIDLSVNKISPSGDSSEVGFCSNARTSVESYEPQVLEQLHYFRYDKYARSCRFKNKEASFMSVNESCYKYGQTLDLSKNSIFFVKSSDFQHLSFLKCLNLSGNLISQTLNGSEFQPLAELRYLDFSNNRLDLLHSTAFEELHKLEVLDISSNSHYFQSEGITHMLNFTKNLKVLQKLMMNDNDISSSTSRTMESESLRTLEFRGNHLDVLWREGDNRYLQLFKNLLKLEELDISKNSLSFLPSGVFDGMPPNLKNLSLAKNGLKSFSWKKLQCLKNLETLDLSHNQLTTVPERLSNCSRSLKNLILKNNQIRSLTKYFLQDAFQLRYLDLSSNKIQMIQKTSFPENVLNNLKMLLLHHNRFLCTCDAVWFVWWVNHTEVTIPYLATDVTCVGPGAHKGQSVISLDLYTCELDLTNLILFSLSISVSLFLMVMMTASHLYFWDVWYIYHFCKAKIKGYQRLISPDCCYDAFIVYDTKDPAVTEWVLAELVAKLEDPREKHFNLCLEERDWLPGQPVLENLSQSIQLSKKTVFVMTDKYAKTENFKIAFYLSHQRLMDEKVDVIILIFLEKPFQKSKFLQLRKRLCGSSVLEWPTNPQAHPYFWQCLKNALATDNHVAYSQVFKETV
Nature of the assay: HEK Reporter Assay, HEK293 NFKB reporter cells expressing human TLR7. It counts as cell-based. As to conditions: Table 1a, read-out: HEK293 hTLR7 EC50. The procedure:
as §1, §2
For `CCCN(CC#CCN)C(=O)C1=Cc2sccc2N=C(N)C1` [TAZ-17, 5-amino-N-(4-aminobut-2-ynyl)-N-propyl-6H-thieno[3,2-b]azepine-7-carboxamide], the EC50 was above 9 µM.
Same read-out and setting: the same measure for `CCCN(CC#CCNC(=O)OC(C)(C)C)C(=O)C1=Cc2sccc2N=C(N)C1` [TAZ-16, tert-butyl N-[4-[(5-amino-6H-thieno[3,2-b]azepine-7-carbonyl)-propyl-amino]but-2-ynyl]carbamate]: above 9 µM.
Take `CCCN(CCC)C(=O)C1=Cc2sc(CCCCCN)cc2N=C(N)C1` [TAZ-14, 5-amino-2-(5-aminopentyl)-N,N-dipropyl-6H-thieno [3,2-b]azepine-7-carboxamide]: the EC50 was above 9 µM.
Still for that read-out and setting: the same measure for `CCCN(Cc1ccc(CN)cc1)C(=O)C1=Cc2sccc2N=C(N)C1` [TAZ-30, 5-amino-N-(4-(aminomethyl)benzyl)-N-propyl-6H-thieno[3,2-b]azepine-7-carboxamide]: above 9 µM; for `CCCN(CCC)C(=O)C1=Cc2sccc2N=C(N)C1` [TAZ-2, 5-amino-N,N-dipropyl-6H-thieno[3,2-b]azepine-7-carboxamide]: above 9 µM.

Staying with this assay, now noted: Table 1b, read-out: HEK293 hTLR7 EC50.
Regarding `CCCN(Cc1ccc(CNC)cc1)C(=O)C1=Cc2sc(CCCCCN(C)C)cc2N=C(N)C1` [TAZ-65, 5-amino-2-[5-(dimethylamino)pentyl]-N-[[4-(methylaminomethyl)phenyl]methyl]-N-propyl-6H-thieno[3,2-b]azepine-7-carboxamide], the half-maximal effective concentration (EC50) is above 9 µM.
The same measure, in the same setting: next, `CCCN(CCC)C(=O)C1=Cc2sc(CNC(=O)CN)cc2N=C(N)C1` [TAZ-92]: above 9 µM.
Consider `CCCN(CCC)C(=O)C1=Cc2sc(COCCN)cc2N=C(N)C1` [TAZ-81], for which the EC50 was above 9 µM.
Take `CCCN(C[C@H]1C[C@H](CN)C1)C(=O)C1=Cc2sccc2N=C(N)C1` [TAZ-69]: the EC50 is above 9 µM.

The same assay, now with this note: Table 1c, read-out: HEK293 hTLR7 EC50.
Turning to `CCCN(C[C@H]1CC[C@@H](CN)CC1)C(=O)C1=Cc2sccc2N=C(N)C1` [TAZ-118], the EC50 was at least 9 µM.
Take `CCCN(OCC)C(=O)C1=Cc2sc(CN3CC(CN)C3)cc2N=C(N)C1` [TAZ-211]: the EC50 was at least 9 µM.
Same read-out and setting: next, `CCCN(OCC)C(=O)C1=Cc2sc(CN3CCN(c4cccc(C(=O)OC(C)(C)C)c4)CC3)cc2N=C(N)C1` [TAZ-216]: at least 9 µM; `CCCN(CCC)C(=O)C1=Cc2scc(C)c2N=C(N)C1` [TAZ-168]: at least 9 µM; `CCCN(OCC)C(=O)C1=Cc2sc(CN3CC4(CCN4Cc4ccccc4)C3)cc2N=C(N)C1` [TAZ-246]: at least 9 µM.
Same read-out and setting: the same measure for `CCCN(OCC)C(=O)C1=Cc2sc(CN3CCC(N)CC3)cc2N=C(N)C1` [TAZ-243]: at least 9 µM; for `CCCN(CCCNC(=O)OC1CCC1)C(=O)C1=Cc2sc(C#CC3CCN(C(=O)OC(C)(C)C)CC3)cc2N=C(N)C1` [TAZ-165]: at least 9 µM; for `CCCN(OCC)C(=O)C1=Cc2sc(C#CC3CN(C(=O)OC(C)(C)C)C3)cc2N=C(N)C1` [TAZ-187]: at least 9 µM.
The same measure, in the same setting: next, `CCCN(OCC)C(=O)C1=Cc2sc(CN3C[C@H]4CNC[C@H]4C3)cc2N=C(N)C1` [TAZ-247]: at least 9 µM; `CCCN(OCC)C(=O)C1=Cc2sc(CN3C[C@H]4CN(C(=O)OC(C)(C)C)C[C@@H]4C3)cc2N=C(N)C1` [TAZ-248]: at least 9 µM.
For the molecule `CCCN(Cc1cnc(CN(C)C)c(C(F)(F)F)c1)C(=O)C1=Cc2sc(CCCCCN)cc2N=C(N)C1` [TAZ-127], the concentration giving a half-maximal response (EC50) is at least 9 µM.
The same measure, in the same setting: the same measure for `CCCN(OCC)C(=O)C1=Cc2sc(CN3Cc4ccc(NC(=O)CCN)cc4C3)cc2N=C(N)C1` [TAZ-201]: at least 9 µM.
Consider `CCCN(OCC)C(=O)C1=Cc2sc(CN3C[C@@H]4CN(C(=O)OC(C)(C)C)C[C@@H]4C3)cc2N=C(N)C1` [TAZ-242], for which the half-maximal effective concentration (EC50) is at least 9 µM.
Same read-out and setting: next, `CCCN(OCC)C(=O)C1=Cc2sc(C#CC3(O)CN(C(=O)OC(C)(C)C)C3)cc2N=C(N)C1` [TAZ-188]: at least 9 µM.
Same read-out and setting: next, `CCCN(Cc1ncco1)C(=O)C1=Cc2sc(CC3CNC3)cc2N=C(N)C1` [TAZ-256]: at least 9 µM; `CCCN(OCC)C(=O)C1=Cc2sc(CC3CCN(C(=O)OC(C)(C)C)CC3)cc2N=C(N)C1` [TAZ-179]: at least 9 µM.
